Assay results from ChEMBL document CHEMBL1201862, “PubChem BioAssay data set” (2004).
The source made the active and inactive calls.

Key:
[1] = inhibitors of intracellular T. cruzi replication, confirmation, NIH3T3 host cells, beta-gal luminescence (AID 2044); assay type: functional, cell-based;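 note: intracellular parasites grown in NIH/3T3 mouse fibroblasts as host cells; luminescent beta-galactosidase reporter signal from transgenic T. cruzi replicating inside host cells; inhibitors lower the luminescence signal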
[2] = target: G-protein coupled receptor 35 (Homo sapiens, UniProt Q9HC97); assay: GPR35 antagonists blocking zaprinast-driven arrestin recruitment, primary screen, imaging, U2OS, beta-arrestin-GFP, zaprinast agonist (AID 2058); assay type: functional;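 note: antagonist potency meaning inhibition of agonist-induced arrestin redistribution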
[3] = cytotoxicity toward NIH3T3 fibroblasts, dose response, counter-screen, cell-based, ATP luminescence, mouse fibroblasts (AID 2010); assay type: functional;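 note: cells exposed to compound for about 90 hours before reading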
[4] = target: T1, Voltage-dependent T-type calcium channel subunit alpha-1H (Homo sapiens, UniProt O95180); assay type: functional
[5] = target: T2, Alkaline phosphatase, tissue-nonspecific isozyme (Homo sapiens, UniProt P05186); assay: human TNAP enzyme inhibitors, SAR follow-up, biochemical, luminescent, dose response (AID 1056)
T2 sequence (P05186 whole entry): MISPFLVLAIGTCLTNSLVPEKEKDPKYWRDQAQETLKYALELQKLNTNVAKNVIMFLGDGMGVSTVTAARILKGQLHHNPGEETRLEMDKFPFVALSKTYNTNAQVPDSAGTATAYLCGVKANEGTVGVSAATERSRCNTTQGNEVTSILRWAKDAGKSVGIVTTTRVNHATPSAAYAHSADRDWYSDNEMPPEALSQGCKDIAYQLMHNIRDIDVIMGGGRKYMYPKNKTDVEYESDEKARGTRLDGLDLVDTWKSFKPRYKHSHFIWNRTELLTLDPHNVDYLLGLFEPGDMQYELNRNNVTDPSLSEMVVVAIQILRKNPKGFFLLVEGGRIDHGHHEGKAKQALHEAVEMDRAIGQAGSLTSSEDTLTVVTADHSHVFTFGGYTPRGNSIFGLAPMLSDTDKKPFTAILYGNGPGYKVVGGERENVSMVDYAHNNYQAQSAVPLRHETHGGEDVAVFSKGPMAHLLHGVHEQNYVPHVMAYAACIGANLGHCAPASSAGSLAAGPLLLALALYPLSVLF

[6] = target: Alkaline phosphatase, placental type (Homo sapiens, UniProt P05187); assay: PLAP enzyme inhibitors, confirmation, biochemical, luminescence (AID 1512); assay type: functional
[7] = target: T1, Voltage-dependent T-type calcium channel subunit alpha-1H; assay: Inhibitors of T-Type Calcium Channels. [Related pubchem assays (depositor defined):AID449739, AID463087, AID489005, AID493041, AID504579, AID504584, AID504619, AID504628]; assay type: functional
[8] = target: T3, Zinc finger protein mex-5 (Caenorhabditis elegans, UniProt Q9XUB2); assay: MEX-5/TCR-2 RNA interaction inhibitors, dose response, biochemical, C. elegans, fluorescence polarization (AID 1960)
T3 sequence (Q9XUB2 whole entry): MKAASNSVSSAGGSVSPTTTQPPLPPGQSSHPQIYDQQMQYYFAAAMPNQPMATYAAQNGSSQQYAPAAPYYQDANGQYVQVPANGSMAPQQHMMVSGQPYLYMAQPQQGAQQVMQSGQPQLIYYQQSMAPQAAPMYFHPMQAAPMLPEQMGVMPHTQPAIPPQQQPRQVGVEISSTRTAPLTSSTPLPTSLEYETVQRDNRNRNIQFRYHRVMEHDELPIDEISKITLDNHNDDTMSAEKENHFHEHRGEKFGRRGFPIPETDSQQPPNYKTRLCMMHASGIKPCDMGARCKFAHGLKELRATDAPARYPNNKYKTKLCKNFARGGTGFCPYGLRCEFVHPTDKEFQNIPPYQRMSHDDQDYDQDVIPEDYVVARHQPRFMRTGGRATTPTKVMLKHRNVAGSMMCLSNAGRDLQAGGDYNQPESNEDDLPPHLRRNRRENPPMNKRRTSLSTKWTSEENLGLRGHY

[9] = target: T4, RNA-binding protein pos-1 (Caenorhabditis elegans, UniProt G5EF15); assay: inhibitors of POS-1/mex-3 RNA binding, dose response, biochemical, fluorescence polarization (AID 1964);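 note: purified POS-1 fused to maltose binding protein made in E. coli; potency of compounds blocking POS-1 binding to fluorescent RNA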
T4 sequence (G5EF15 whole entry): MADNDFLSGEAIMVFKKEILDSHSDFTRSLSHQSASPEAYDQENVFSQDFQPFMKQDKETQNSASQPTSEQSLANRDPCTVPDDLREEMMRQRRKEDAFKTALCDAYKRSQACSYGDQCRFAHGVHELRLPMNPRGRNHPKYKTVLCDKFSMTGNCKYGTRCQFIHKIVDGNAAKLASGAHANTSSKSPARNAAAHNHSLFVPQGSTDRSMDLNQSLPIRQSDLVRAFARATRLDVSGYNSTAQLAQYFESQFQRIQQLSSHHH

[10] = target: T5, Rac GTPase-activating protein 1 (Homo sapiens, UniProt Q9H0H5); assay: MgcRacGAP GTPase-activating activity inhibitors, confirmation, biochemical, ADP Hunter fluorescence, primary and confirmatory (AID 624330); assay type: functional
T5 sequence (Q9H0H5 whole entry): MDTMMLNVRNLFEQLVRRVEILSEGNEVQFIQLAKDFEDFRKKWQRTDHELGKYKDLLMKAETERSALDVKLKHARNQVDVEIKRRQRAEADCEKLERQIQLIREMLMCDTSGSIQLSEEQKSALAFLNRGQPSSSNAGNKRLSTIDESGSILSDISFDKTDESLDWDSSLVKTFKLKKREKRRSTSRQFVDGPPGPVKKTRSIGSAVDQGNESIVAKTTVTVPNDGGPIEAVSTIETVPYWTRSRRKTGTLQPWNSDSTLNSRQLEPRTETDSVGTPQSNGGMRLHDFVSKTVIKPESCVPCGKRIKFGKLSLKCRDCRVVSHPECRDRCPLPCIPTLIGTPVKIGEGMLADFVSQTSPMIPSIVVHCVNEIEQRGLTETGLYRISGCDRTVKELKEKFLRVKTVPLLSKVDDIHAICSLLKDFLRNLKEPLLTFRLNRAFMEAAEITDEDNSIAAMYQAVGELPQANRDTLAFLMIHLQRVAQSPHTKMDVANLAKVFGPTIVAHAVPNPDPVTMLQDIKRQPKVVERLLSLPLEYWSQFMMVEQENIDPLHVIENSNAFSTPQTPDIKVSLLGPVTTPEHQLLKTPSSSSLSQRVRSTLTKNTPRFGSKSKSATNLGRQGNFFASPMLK

Trypsin = Trypsin (Sus scrofa, UniProt P00761); assay: porcine trypsin inhibitors, dose response, selectivity assay for Rce1 protease inhibitor project, biochemical, quenched peptide fluorescence, cherry-pick (AID 488789)
[11] = Shn3 3'UTR reporter inhibitors, dose response, cell-based, Clone20 osteoblasts, firefly luciferase, cherry-picked (AID 624132); assay type: functional;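 note: firefly luciferase luminescence from reporter carrying the Shn3 3'UTR in osteoblasts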
X-box-binding protein 1 = X-box-binding protein 1 (Homo sapiens, UniProt P17861); assay type: functional, Cricetulus griseus;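 note: confirmatory dose-response counter-screen serving a CHOP assay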
[12] = control 3'UTR Renilla luciferase suppression, dose response, counter-screen for Shn3 inhibitor project, cell-based, Clone20-Shn3RL, cherry-picked (AID 624133); assay type: functional
[13] = Luminescence Cell-Based Dose Retest to Confirm Inhibitors of Cancer Stem Cells. [Related pubchem assays (depositor defined):AID2717, AID2721]; assay type: functional; conditions: Homo sapiens
[14] = HepG2 cell cytotoxicity, dose response, cytotoxicity control for Shn3 inhibitor project, CellTiter-Glo, cherry-picked (AID 624134); assay type: functional, cell-based
[15] = target: T6, Voltage-gated N-type calcium channel alpha-1B subunit/Amyloid beta A4 precursor protein-binding family A member 1 (Homo sapiens, UniProt Q00975+Q02410); assay type: protein assay
[16] = target: T6, Voltage-gated N-type calcium channel alpha-1B subunit/Amyloid beta A4 precursor protein-binding family A member 1; assay type: protein assay; remark: listed apart in the source
[17] = cytotoxicity toward DRD oncogenic fibroblasts, dose response, cell-based, non-viral oncogenic, luminescence (AID 1934); assay type: functional; conditions: Homo sapiens
BJ [18] = assay: cytotoxicity toward BJ-TERT fibroblasts, dose response, cell-based, RAS-independent, luminescence (AID 1933); assay type: functional; conditions: Homo sapiens
[19] = target: G-protein coupled receptor 55 (Homo sapiens, UniProt Q9Y2T6); assay: GPR55 agonists via beta-arrestin recruitment, primary screen, imaging, U2OS cells, beta-arrestin-GFP redistribution (AID 1961); assay type: functional
BJ [20] = assay: cytotoxicity toward BJ-TERT-LT-ST fibroblasts, dose response, cell-based, RAS-independent, luminescence (AID 1935); assay type: functional; conditions: Homo sapiens;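 note: BJ fibroblasts immortalized with TERT plus LT and ST oncogenes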
BJ [21] = assay: cells; assay type: functional, cell-based; conditions: Homo sapiens
[22] = microbe, parasite or virus in culture; assay type: functional; conditions: Mycobacterium tuberculosis
BJ [23] = assay: cytotoxicity toward Ras-transformed BJeLR fibroblasts, dose response, cell-based, alamar blue fluorescence, cherrypicked samples (AID 2631); assay type: functional; conditions: Homo sapiens;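 note: confirmatory dose-response assay in RAS-dependent BJ fibroblasts engineered with TERT, LT and ST, with cytotoxicity read by fluorescence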

T1 sequence (O95180 whole entry): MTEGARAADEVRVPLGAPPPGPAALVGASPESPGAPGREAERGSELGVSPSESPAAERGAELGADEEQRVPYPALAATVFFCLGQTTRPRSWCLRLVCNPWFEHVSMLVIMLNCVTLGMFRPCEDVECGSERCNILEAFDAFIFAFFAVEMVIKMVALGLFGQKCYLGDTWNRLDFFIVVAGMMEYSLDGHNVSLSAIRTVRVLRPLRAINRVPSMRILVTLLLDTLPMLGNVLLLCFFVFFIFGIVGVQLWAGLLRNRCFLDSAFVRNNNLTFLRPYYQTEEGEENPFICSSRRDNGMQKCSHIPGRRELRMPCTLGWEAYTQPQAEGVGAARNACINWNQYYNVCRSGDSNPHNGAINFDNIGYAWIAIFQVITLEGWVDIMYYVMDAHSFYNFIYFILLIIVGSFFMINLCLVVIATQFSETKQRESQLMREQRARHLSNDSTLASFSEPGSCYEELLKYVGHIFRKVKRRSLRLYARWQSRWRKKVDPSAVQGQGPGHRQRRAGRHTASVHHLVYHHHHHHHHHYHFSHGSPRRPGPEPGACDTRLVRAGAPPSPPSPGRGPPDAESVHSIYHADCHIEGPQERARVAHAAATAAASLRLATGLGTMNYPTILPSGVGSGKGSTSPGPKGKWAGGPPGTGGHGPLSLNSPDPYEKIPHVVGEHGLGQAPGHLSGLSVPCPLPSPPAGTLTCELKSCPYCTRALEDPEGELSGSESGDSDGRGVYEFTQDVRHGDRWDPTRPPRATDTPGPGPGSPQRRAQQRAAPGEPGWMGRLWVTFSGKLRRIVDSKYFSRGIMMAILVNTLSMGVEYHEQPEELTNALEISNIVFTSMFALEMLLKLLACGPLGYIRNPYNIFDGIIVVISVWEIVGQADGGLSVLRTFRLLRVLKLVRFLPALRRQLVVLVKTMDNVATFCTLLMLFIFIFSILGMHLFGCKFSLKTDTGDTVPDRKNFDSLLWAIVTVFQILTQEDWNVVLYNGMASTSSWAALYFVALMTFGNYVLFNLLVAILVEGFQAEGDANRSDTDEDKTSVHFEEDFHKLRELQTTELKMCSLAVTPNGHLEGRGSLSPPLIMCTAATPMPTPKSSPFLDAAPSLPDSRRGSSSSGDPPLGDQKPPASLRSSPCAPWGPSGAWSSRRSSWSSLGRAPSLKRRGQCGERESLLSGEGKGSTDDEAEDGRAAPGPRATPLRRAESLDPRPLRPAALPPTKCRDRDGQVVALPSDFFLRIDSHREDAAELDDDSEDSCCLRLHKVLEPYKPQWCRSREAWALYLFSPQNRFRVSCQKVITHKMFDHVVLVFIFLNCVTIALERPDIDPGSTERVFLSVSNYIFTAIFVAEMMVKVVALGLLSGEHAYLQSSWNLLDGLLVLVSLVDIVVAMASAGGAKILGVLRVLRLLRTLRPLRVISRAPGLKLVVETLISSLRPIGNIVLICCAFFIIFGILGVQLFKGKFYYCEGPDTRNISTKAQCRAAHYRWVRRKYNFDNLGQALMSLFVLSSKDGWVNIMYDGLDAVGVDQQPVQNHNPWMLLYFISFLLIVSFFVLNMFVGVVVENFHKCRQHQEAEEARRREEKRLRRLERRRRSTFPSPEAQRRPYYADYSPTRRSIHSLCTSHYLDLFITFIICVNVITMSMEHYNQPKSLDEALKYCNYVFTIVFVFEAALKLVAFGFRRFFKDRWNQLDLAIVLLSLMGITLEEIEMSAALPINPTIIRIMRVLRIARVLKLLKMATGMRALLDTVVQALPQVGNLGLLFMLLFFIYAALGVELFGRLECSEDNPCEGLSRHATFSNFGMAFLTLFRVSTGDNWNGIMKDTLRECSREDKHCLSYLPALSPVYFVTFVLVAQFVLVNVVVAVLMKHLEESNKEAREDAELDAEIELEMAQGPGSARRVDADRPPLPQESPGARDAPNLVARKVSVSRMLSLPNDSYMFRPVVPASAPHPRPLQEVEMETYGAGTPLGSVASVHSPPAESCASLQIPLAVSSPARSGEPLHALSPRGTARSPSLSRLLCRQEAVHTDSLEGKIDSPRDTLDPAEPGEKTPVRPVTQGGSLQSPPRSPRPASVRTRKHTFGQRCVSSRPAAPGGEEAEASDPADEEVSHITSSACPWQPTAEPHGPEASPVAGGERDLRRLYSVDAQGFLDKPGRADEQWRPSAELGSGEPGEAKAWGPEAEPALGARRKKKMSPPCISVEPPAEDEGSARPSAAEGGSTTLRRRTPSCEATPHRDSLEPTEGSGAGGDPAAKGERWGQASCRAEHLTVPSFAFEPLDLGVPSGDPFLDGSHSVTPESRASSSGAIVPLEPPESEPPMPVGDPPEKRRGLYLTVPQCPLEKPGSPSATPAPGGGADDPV
Sequence of G-protein coupled receptor 35 (Q9HC97 whole entry): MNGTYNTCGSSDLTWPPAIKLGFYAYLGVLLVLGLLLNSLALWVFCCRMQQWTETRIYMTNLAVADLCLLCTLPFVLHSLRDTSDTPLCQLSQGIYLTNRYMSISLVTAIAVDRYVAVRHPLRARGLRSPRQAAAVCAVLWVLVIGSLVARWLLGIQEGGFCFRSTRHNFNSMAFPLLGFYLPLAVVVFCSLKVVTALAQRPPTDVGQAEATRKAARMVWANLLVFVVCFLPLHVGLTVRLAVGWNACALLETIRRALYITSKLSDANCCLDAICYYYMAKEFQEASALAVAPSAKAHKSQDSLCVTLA
Sequence of Alkaline phosphatase, placental type (P05187 whole entry): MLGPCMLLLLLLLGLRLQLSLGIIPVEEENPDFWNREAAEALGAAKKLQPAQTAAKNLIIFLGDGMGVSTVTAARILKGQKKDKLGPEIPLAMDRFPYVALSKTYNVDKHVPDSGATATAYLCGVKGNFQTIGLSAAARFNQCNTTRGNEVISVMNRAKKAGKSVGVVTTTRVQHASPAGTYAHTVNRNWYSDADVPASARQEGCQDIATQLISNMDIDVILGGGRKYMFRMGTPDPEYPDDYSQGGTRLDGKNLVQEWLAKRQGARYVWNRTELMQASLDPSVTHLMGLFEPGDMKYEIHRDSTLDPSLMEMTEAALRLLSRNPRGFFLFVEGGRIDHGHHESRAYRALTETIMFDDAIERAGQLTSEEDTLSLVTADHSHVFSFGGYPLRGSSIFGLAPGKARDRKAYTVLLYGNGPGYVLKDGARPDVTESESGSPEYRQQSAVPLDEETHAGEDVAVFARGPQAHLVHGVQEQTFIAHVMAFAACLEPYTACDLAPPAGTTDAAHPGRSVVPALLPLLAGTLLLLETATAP
Sequence of X-box-binding protein 1 (P17861 whole entry): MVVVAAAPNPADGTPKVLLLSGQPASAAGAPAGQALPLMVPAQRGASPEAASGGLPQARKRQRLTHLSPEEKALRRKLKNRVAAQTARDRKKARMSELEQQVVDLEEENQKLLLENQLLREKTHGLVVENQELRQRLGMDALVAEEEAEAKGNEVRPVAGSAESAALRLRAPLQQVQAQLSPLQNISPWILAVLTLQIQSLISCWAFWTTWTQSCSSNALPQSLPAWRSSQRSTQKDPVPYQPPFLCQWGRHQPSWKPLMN
Sequence of Trypsin (P00761 whole entry): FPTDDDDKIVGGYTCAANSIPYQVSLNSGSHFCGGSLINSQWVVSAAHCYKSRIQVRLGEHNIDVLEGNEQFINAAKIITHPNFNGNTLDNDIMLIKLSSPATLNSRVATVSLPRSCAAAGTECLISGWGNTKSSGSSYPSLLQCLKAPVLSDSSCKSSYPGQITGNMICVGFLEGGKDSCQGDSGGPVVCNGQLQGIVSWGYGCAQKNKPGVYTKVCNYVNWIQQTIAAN
Sequence of G-protein coupled receptor 55 (Q9Y2T6 whole entry): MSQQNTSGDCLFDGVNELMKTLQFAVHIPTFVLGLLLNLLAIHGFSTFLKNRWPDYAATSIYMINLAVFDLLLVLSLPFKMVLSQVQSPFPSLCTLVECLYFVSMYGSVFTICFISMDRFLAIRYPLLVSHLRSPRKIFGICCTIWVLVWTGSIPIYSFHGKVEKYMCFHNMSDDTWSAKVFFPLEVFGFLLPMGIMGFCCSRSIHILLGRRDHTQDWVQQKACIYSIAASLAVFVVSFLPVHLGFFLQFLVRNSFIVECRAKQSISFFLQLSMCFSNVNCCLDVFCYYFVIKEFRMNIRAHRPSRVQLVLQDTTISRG

CCN(CC)c1ccc(/C=C(/C#N)c2nc3cc(C)ccc3[nH]2)c(OC(C)C)c1
EC50 [1]: 823 nM (active)
IC50 [2]: 557 nM (active)
EC50 [3]: > 60 µM (not active)
EC50 [4]: 1.62 µM (active)

Cc1cc(C)c(C#N)c(SCC(=O)c2ccc3c(c2)OCO3)n1
IC50 [5]: > 100 µM (inactive)
IC50 [6]: > 100 µM (inactive)

Cc1ccc(N2C(=O)c3cccc4c(N5CCN(C)CC5)ccc(c34)C2=O)c2cccnc12
EC50 [7]: 4.61 µM (active)
EC50 [8]: 7.84 µM (active)
EC50 [9]: 7.8 µM (active)
EC50 [4]: 0.658 µM (active)

C=CCn1c(SCC(=O)c2ccc(O)c(O)c2)nnc1-c1cccc(Cl)c1
IC50 [5]: 20.7 µM (active)
IC50 [6]: 6.62 µM (active)
IC50 [10]: 79.5 µM (active)

COc1ccc(-c2oc3ccc(N4CCOCC4)cc3c2/C=C/c2ccc(OC)c(OC)c2)cc1
AC50 (Trypsin): 2.77 µM (active)

Cc1cc(Nc2cccc([N+](=O)[O-])c2)n2c(nc3ccccc32)c1C#N
AC50 [11]: 1.9 µM (active)
EC50 [1]: 2470 nM (active)
Absolute IC50 (XBP1) (X-box-binding protein 1): 10 µM
AC50 [12]: 3.46 µM (active)
EC50 [3]: > 60 µM (inconclusive)
AC50 [13]: 2.33 µM (active)
AC50 [14]: 2.15 µM (active)

N#CC1=C([S-])NC(=O)[C@H]([n+]2ccccc2)[C@H]1c1ccc(Cl)cc1
IC50 [15]: > 50 µM (inactive)
IC50 [16]: > 56.8 µM (not active)

COc1ccc(C=C2C=C(C(C)(C)C)C(=O)C(C(C)(C)C)=C2)cc1OC
EC50 [17]: 5.35 µM (inconclusive)
IC50 [2]: 3160 nM (active)
EC50 (BJ [18]): 2.93 µM (active)
EC50 [19]: > 32 µM (inactive)
EC50 (BJ [20]): 3.54 µM (inconclusive)
EC50 (BJ [21]): 6.69 µM (active)
CC50 [22]: 12.8 µM (active)
AC50 [13]: 1.88 µM (active)
EC50 (BJ [23]): 571 nM (inconclusive)
